US7812022B2 (GlaxoSmithKline LLC, priority 2004, dated 2010)

Tests used:
ErbB2 or EGFR = biological target: T1, ErbB2 or EGFR; test: ErbB family substrate phosphorylation enzyme assay (HTRF), Method A or Method B; assay type: biochemical; details: Method B: enzyme mix pre-incubated with compound 1 hour at 20° C., started with substrate mix
T1 construct: enzymes purified from a baculovirus expression system; Reagent production was conducted essentially as described in Brignola, P. S., et al, (2002) J. Biol. Chem. 277(2): 1576-1585
Summary of the method: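 Baculovirus-expressed EGFR or ErbB2 (0.8 or 10 nM in enzyme mix) phosphorylates biotinylated Peptide C with 20 µM ATP and 0.8 µM peptide (substrate-mix levels), MnCl2, pH 7.5. Reaction ran 90 min at 20 °C with EDTA stop and HTRF anti-phosphotyrosine read. Method A: enzyme added last; Method B: 1 h enzyme–compound preincubation.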

[1] = tested on: BT474 and HN5 tumor cell lines; test: Celltiter Glo growth inhibition assay (cellular Method B); assay type: cell-based; details: Homo sapiens, BT-474, 72 h, 3 days, read-out: Activity (Method): growth inhibition IC50 class
Procedure: (§1) Human breast tumor cells (BT474) were cultured in RPMI, (Invitrogen, 22400) containing 10% fetal bovine serum (FBS). Human head and neck tumor cells (HN5) were cultured in low glucose DMEM (Invitrogen, 12320) containing 10% FBS. Human colon tumor cells (Colo205) were cultured in DMEM (Invitrogen, 10564) containing 10% FBS. All cell lines were maintained at 37° C. in a humidified 5% CO2, 95% air incubator. Cells were harvested using trypsin/EDTA, counted using a haemocytometer, and plated in 30 microliters of the appropriate media described above, at the following densities, in a half area, black-walled, 96-well tissue culture plate (Corning 3882): BT474 3,000 cells/well, HN5 500 cells/well and Colo205 cells, 3,000 cells/well. The next day, compounds were diluted in DMEM containing […] gentamicin, from 10 mM stock solutions in DMSO. 30 microliters/well of these dilutions were added to the 30 microliters/well of media currently on the cell plates. Medium containing 0.6% DMSO was added to control wells. The final concentration of DMSO in all wells was 0.3%. Cells were incubated at 37° C., 5% CO2 for 3 days. Cell biomass was estimated using Celltiter Glo (Promega G7571). Briefly, plates were removed from the incubator and allowed to equilibrate to rt for 30 minutes. 60 microliters of Celltiter Glo reagent were added to each well of the treated cells and plates were shaken on an orbital plate shaker for 2 min. Plates were incubated without shaking for 30 more min and read in a luminometer with an integration time of 0.5 seconds per well. Percent inhibition of cell growth was calculated relative to vehicle treated control wells. Concentration of compound that inhibits 50% of vehicle control cell growth (IC50) was interpolated using nonlinear regression (Levenberg-Marquardt) and the equation, y=Vmax*(1−(x/(K+x)))+Y2, where “K” was equal to the IC50.

Colo205 tumor cell lines = test: Celltiter Glo growth inhibition assay (cellular Method B), Colo205; assay type: cell-based; details: Homo sapiens, COLO 205, 72 h, 3 days, read-out: Activity (Method): growth inhibition IC50 class
Procedure: as §1

IC50 [1] [nM] | IC50 (Colo205 tumor cell lines) [nM] | Compound | Activity (Method): pIC50 class against ErbB2 or EGFR (ErbB2 or EGFR)
< 100 | > 1000 | O=C(Nc1cccc(-c2nn3cc(F)ccc3c2-c2ccnc(Nc3cccc(CN4CCCC4)c3)n2)c1)c1c(F)cccc1F [Example 172, 2,6-Difluoro-N-{3-[6-fluoro-3-(2-{[3-(1-pyrrolidinylmethyl)phenyl]amino}-4-pyrimidinyl)pyrazolo[1,5-a]pyridin-2-yl]phenyl}benzamide] | +++ (B) (at least one pIC50 measurement of greater than 7 against either ErbB2 or EGFR)
< 100 | > 1000 | CN1CCc2ccc(Nc3nccc(-c4c(-c5cccc(NC(=O)c6c(F)cccc6F)c5)nn5cc(F)ccc45)n3)cc2C1 [Example 173, 2,6-Difluoro-N-[3-(6-fluoro-3-{2-[(2-methyl-1,2,3,4-tetrahydro-7-isoquinolinyl)amino]-4-pyrimidinyl}pyrazolo[1,5-a]pyridin-2-yl)phenyl]benzamide] | +++ (B) (at least one pIC50 measurement of greater than 7 against either ErbB2 or EGFR)
100 to 1000 | > 1000 | CN(C)c1cccc2c(-c3ccnc(Nc4cccc(F)c4)n3)c(-c3cccc(NC(=O)c4c(F)cccc4F)c3)nn12.O=C(O)C(F)(F)F [Example 175, N-[3-(7-(Dimethylamino)-3-{2-[(3-fluorophenyl)amino]-4-pyrimidinyl}pyrazolo[1,5-a]pyridin-2-yl)phenyl]-2,6-difluorobenzamide trifluoroacetate] | +++ (B) (at least one pIC50 measurement of greater than 7 against either ErbB2 or EGFR)
< 100 | > 1000 | NCc1cccc(Nc2nccc(-c3c(-c4cccc(NC(=O)c5c(F)cccc5F)c4)nn4ccccc34)n2)c1 [Example 180, N-{3-[3-(2-{[3-(Aminomethyl)phenyl]amino}-4-pyrimidinyl)pyrazolo[1,5-a]pyridin-2-yl]phenyl}-2,6-difluorobenzamide] | +++ (B) (at least one pIC50 measurement of greater than 7 against either ErbB2 or EGFR)
< 100 | 100 to 1000 | CN(C)C1Cc2ccc(Nc3nccc(-c4c(-c5ccc(F)c(NC(=O)c6c(F)cccc6F)c5)nn5ccccc45)n3)cc2C1.O=C(O)C(F)(F)F (stereo not drawn) [Example 181, N-{5-[3-(2-{[2-(Dimethylamino)-2,3-dihydro-1H-inden-5-yl]amino}-4-pyrimidinyl)pyrazolo[1,5-a]pyridin-2-yl]-2-fluorophenyl}-2,6-difluorobenzamide] | +++ (B) (at least one pIC50 measurement of greater than 7 against either ErbB2 or EGFR)
< 100 | 100 to 1000 | CN(C)CCOc1cccc(Nc2nccc(-c3c(-c4ccc(F)c(NC(=O)c5c(F)cccc5F)c4)nn4ccccc34)n2)c1 [Example 182, N-[5-(3-{2-[(3-{[2-(Dimethylamino)ethyl]oxy}phenyl)amino]-4-pyrimidinyl}pyrazolo[1,5-a]pyridin-2-yl)-2-fluorophenyl]-2,6-difluorobenzamide] | +++ (B) (at least one pIC50 measurement of greater than 7 against either ErbB2 or EGFR)
< 100 | > 1000 | CNCc1cccc(Nc2nccc(-c3c(-c4cccc(NC(=O)c5c(F)cccc5F)c4)nn4ccccc34)n2)c1 [Example 183, 2,6-Difluoro-N-(3-{3-[2-({3-[(methylamino)methyl]phenyl}amino)-4-pyrimidinyl]pyrazolo[1,5-a]pyridin-2-yl}phenyl)benzamide] | +++ (B) (at least one pIC50 measurement of greater than 7 against either ErbB2 or EGFR)
< 100 | > 1000 | NCc1cccc(Nc2nccc(-c3c(-c4cccc(NC(=O)c5cc(F)ccc5F)c4)nn4ccccc34)n2)c1 [Example 184, N-{3-[3-(2-{[3-(Aminomethyl)phenyl]amino}-4-pyrimidinyl)pyrazolo[1,5-a]pyridin-2-yl]phenyl}-2,5-difluorobenzamide] | +++ B) (at least one pIC50 measurement of greater than 7 against either ErbB2 or EGFR)
< 100 | > 1000 | CN(C)CCNCc1cccc(Nc2nccc(-c3c(-c4cccc(NC(=O)c5c(F)cccc5F)c4)nn4ccccc34)n2)c1 [Example 185, N-{3-[3-(2-{[3-({[2-(Dimethylamino)ethyl]amino}methyl)phenyl]-amino}-4-pyrimidinyl)pyrazolo[1,5-a]pyridin-2-yl]phenyl}-2,6-difluorobenzamide] | +++ (B) (at least one pIC50 measurement of greater than 7 against either ErbB2 or EGFR)
< 100 | > 1000 | Cc1ccc(F)c(C(=O)Nc2cccc(-c3nn4ccccc4c3-c3ccnc(Nc4ccc(OCCN(C)C)c(Cl)c4)n3)c2)c1F.O=C(O)C(F)(F)F [Example 186, N-[3-(3-{2-[(3-chloro-4-{[2-(dimethylamino)ethyl]oxy}phenyl)-amino]-4-pyrimidinyl}pyrazolo[1,5-a]pyridin-2-yl)phenyl]-2,6-difluoro-3-methylbenzamide-TFA] | +++ (B) (at least one pIC50 measurement of greater than 7 against either ErbB2 or EGFR)
< 100 | 100 to 1000 | CS(=O)(=O)CCNCc1cccc(Nc2nccc(-c3c(-c4cccc(NC(=O)c5cc(F)ccc5F)c4)nn4ccccc34)n2)c1 [Example 187, 2,5-Difluoro-N-{3-[3-(2-{[3-({[2-(methylsulfonyl)ethyl]amino}-methyl)phenyl]amino}-4-pyrimidinyl)pyrazolo[1,5-a]pyridin-2-yl]phenyl}benzamide] | +++ (B) (at least one pIC50 measurement of greater than 7 against either ErbB2 or EGFR)
< 100 | > 1000 | CS(=O)(=O)CCNCc1cccc(Nc2nccc(-c3c(-c4cccc(NC(=O)c5c(F)cccc5F)c4)nn4ccccc34)n2)c1 [Example 188, 2,6-Difluoro-N-{3-[3-(2-{[3-({[2-(methylsulfonyl)ethyl]amino}-methyl)phenyl]amino}-4-pyrimidinyl)pyrazolo[1,5-a]pyridin-2-yl]phenyl}benzamide] | +++ (B) (at least one pIC50 measurement of greater than 7 against either ErbB2 or EGFR)
> 1000 | > 1000 | O=C(Nc1cccc(-c2nn3cc(C(F)(F)F)ccc3c2-c2ccnc(Nc3cccc(F)c3)n2)c1)c1c(F)cccc1F [Example 191, 2,6-Difluoro-N-{3-[3-{2-[(3-fluorophenyl)amino]-4-pyrimidinyl}-6-(trifluoromethyl)pyrazolo[1,5-a]pyridin-2-yl]phenyl}benzamide] | ++ (B) (at least one pIC50 measurement greater than 6 against either ErbB2 or EGFR but no measurement greater than pIC50 of 7)
> 1000 | > 1000 | O=C(Nc1cccc(-c2nn3cc(C(F)(F)F)ccc3c2-c2nc(Nc3cccc(F)c3)ncc2F)c1)c1c(F)cccc1F [Example 193, 2,6-Difluoro-N-{3-[3-{5-fluoro-2-[(3-fluorophenyl)amino]-4-pyrimidinyl}-6-(trifluoromethyl)pyrazolo[1,5-a]pyridin-2-yl]phenyl}benzamide] | + (B) (no pIC50 measurement greater than 6 against either ErbB2 or EGFR)
